“Also recorded” adds a separate entry of the source.
Legend:
[1] = target: Stromelysin (Homo sapiens, UniProt P08254); assay: inhibition of stromelysin (Table 2); assay type: biochemical; settings: read-out: Strom inhibitory activity
Method: (§6) Specifically, assay of inhibition activity can be conducted as follows. […] Assays for inhibition of human stromelysin are conducted as described by Teahan, J., et al., Biochemistry (1989) 20:8497-8501.
(§7) Assay of inhibition activity can be conducted using a fluorogenic substrate developed by Knight et al., FEBS Letters (1992) 296:263. This method uses a fluorometer to determine the rate of substrate hydrolysis in a 96 well plate format. Reaction rates are determined at several substrate concentrations, and multiple inhibitor levels. The data are analyzed by Lineweaver-Burk, Dixon and Henderson plot analyses (Enzyme Kinetics (1975) Irwin Segal (John Wiley & Sons, Inc., publishers), and as described by Henderson, Biochem J. (1972) 127:321). The substrate levels range from 10-30μM. […] Inhibitors may be assayed against purified 72 kD gelatinase, 92 kD gelatinase, neutrophil collagenase, stromelysin or other proteases as appropriate. The enzymes are activated at 37° C. with APMA (4-aminophenylmercuric acetate), and the assays are carried out at room temperature.

[2] = target: T1, Natural human 72kD gelatinase (Homo sapiens, UniProt P08253); assay: inhibition of 72kD gelatinase (Table 2); assay type: biochemical; settings: read-out: 72kD G inhibitory activity
T1 sequence (P08253 110-660): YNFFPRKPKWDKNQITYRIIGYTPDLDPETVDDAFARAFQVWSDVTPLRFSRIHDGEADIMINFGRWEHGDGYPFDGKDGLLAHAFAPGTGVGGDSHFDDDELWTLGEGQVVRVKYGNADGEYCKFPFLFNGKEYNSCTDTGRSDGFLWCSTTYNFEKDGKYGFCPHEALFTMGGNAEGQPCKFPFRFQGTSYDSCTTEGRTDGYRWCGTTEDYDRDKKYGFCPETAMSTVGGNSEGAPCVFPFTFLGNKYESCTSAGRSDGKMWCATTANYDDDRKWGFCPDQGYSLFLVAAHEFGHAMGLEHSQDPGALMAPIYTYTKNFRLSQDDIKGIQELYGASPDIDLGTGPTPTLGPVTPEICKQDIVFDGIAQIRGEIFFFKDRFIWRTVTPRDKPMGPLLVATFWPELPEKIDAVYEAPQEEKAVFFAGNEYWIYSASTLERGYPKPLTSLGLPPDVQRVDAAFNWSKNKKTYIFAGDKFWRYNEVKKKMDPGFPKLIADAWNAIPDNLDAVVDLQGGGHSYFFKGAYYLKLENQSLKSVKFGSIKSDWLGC
Method: as §6, §7

[3] = target: Recombinant neutrophil collagenase (Homo sapiens, UniProt P22894); assay: inhibition of recombinant neutrophil collagenase (Table 2); assay type: biochemical; settings: read-out: NC inhibitory activity
Chain of Recombinant neutrophil collagenase (P22894 101-467): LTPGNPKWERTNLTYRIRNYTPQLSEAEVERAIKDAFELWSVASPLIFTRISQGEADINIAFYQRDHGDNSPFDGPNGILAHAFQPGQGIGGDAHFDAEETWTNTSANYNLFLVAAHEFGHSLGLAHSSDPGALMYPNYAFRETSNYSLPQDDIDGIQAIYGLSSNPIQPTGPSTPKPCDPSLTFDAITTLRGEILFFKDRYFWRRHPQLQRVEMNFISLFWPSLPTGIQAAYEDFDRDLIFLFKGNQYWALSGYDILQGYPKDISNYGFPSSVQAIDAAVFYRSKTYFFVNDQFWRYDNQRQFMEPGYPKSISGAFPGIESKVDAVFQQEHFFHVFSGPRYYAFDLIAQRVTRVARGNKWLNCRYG
Method: as §6, §7

[4] = target: T2, human skin fibroblast collagenase (Homo sapiens, UniProt P03956); assay: inhibition of collagenase, synthetic thiol ester substrate, Ki (Table 1); assay type: biochemical
T2 construct: endogenous in cells; host or cells: human skin fibroblasts
T2 sequence (P03956 100-469): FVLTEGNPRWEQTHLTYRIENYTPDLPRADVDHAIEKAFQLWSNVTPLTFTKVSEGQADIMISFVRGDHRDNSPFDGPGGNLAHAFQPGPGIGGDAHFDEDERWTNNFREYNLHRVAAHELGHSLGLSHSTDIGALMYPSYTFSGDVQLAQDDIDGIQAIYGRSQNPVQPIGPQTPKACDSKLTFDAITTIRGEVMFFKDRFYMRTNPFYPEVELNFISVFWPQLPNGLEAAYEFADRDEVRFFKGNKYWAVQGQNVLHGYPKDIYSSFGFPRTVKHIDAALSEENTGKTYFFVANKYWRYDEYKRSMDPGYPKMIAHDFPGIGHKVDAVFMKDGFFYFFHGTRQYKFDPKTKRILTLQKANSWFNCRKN
Method: Specifically, assay of inhibition activity can be conducted as follows. Inhibitors may be assayed against crude or purified human skin fibroblast collagenase, or purified human gingival fibroblast collagenase using the synthetic thiol ester substrate at pH 6.5 exactly as described by Kortylewicz & Galardy, J Med Chem (1990) 33:263-273, at a collagenase concentration of 1-2 nM. The candidate inhibitors are tested for their ability to inhibit crude collagenase and gelatinase from human skin fibroblasts, crude collagenase and gelatinase from purulent human neutrophils in this assay.

[5] = target: 92kD gelatinase (Homo sapiens, UniProt P14780); assay: inhibition of 92kD gelatinase (Table 2); assay type: biochemical; settings: read-out: 92kD G inhibitory activity
Chain of 92kD gelatinase (P14780 107-707 limits assumed): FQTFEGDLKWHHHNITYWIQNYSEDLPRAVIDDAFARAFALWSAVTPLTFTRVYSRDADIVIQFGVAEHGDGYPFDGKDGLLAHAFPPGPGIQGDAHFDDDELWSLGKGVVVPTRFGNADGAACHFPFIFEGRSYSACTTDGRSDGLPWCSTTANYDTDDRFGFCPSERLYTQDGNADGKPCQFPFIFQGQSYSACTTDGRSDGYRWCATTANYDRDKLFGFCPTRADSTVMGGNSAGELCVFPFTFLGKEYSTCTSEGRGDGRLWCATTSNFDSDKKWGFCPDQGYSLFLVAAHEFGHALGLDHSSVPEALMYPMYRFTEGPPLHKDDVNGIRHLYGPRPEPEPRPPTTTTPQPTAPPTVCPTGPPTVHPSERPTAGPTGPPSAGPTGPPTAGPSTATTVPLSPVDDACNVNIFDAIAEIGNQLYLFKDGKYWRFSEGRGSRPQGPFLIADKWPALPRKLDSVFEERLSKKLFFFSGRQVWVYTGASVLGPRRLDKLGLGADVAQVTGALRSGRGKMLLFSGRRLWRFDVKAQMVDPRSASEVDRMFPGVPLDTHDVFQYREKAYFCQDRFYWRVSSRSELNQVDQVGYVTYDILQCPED

[6] = target: T3, Human gingival fibrblast collagenase (Homo sapiens, UniProt P03956); assay: inhibition of human gingival fibroblast collagenase (Table 2); assay type: biochemical; settings: read-out: HGFC inhibitory activity
T3 construct: endogenous in cells; host or cells: human gingival fibroblasts
T3 sequence (P03956 100-469): T2 sequence (P03956 100-469)
Method: as §6, §7

[7] = tested on: protease activity of chronic wound fluid; assay: Azocoll assay of protease activity in chronic wound fluid; assay type: biochemical, human
Method: (§1) Fluids were collected from 3 types of human wounds termed closed spontaneously healing wounds, open slowly healing wounds, and open chronic wounds. In the first category were fluids collected from the chest wall of women following mastectomy surgery. Fluids from non-infected wounds that were left open for valid surgical reasons were considered open slowly healing wounds. An occlusive dressing was placed over the wound bed, and fluids were collected after 2-6 hours of occlusion. Finally, fluids were also collected from chronic open wounds by covering the wounds with occlusive dressings. Wounds were considered to be chronic if they were not clinically infected and had been open and not healing for more than 4 weeks.
(§2) The various wound fluids were assayed for matrix metalloproteinase activity using the Azocoll assay essentially as described by Chavira, et al., Analytic Biochemistry (1984), 136:446.
(§3) The fluids were centrifuged, and the supernatants filtered using a 0.45μ sterile Gelman filter. The filtrates were stored frozen at -80° C. until tested for protease activity.
(§4) The effects of four inhibitors on the protease activity present in wound fluids were determined. The inhibitors were: compounds
Stock solutions of the four inhibitors were all prepared at a concentration of 800 μg/ml. Due to different solubility properties of the inhibitors, different techniques were utilized. […] S1209 was dissolved in 1% DMSO then dissolved in 10 mM citrate, pH 5.5, containing 0.05% methyl cellulose. 39A was dissolved in propylene glycol (to give a final concentration of 2.4%) then dissolved in 1 mM CaCl2, 50 mM Tris-Cl, pH 7.8. 21A was dissolved in propylene glycol (2.4%) methyl cellulose (0.05%) and 10 mM citrate, pH 8.
The protease substrate, Azocoll, was obtained from Sigma Chemical Corporation and it is a substrate for collagenase/gelatinase-like metalloproteinase enzymes and general proteases. Clostridium histolyticum collagenase (the crude form of the enzyme) was from Worthington Biochemicals. General chemicals including TRIS buffer, DMSO, and CaCl2 were from Sigma Chemical Corporation.
(§5) Briefly, 900 μl of the Azocoll substrate suspension in buffer ([…] in 50 mM TRIS, pH 7.8, 1 mM CaCl2) was added to 1.5 ml microcentrifuge tubes then 50 μl of inhibitor (or buffer) and 50 μl of chronic wound fluid (or collagenase standard) were added to the reaction tube. The reaction tubes were placed at 37° C. in a shaker that inverted the tubes 30 times per minute. After 24 hours of incubation, the reaction tubes were centrifuges at 10,000 X g and the absorbance of the supernatant solution was measured at 520 nm with a Milton-Roy spectrophotometer. Proteolysis of Azocoll substrate generates soluble colored fragments from the insoluble Azocoll substrate. Wound fluid samples were incubated alone or with the inhibitors. Controls included incubation of the Azocoll substrate with the assay buffer to measure spontaneous degradation of the substrate. A standard curve for digestion of the Azocoll substrate was generated by incubation of the Azocoll with crude bacterial collagenase. Protease levels were expressed as net μg of collagenase equivalent per ml of chronic wound fluid. In the figures, certain of the wound fluids are referred to by an individual name.
For these experiments, due to the different solubility properties of the inhibitors, different techniques were utilized. […] S1209 was dissolved in 1% DMSO then dissolved in 10 mM citrate, pH 5.5, containing 0.05% methyl cellulose. 39A was dissolved in propylene glycol (to give a final concentration of 2.4%) then dissolved in 1 mM CaCl2, […] Tris-Cl, pH 7.8. 21A was dissolved in propylene glycol (2.4%) methyl cellulose (0.05%) and 10 mM citrate, pH 8.

[8] = tested on: protease activity in open and chronic wound fluids; assay: Azocoll assay of protease activity in open and chronic wound fluids; assay type: biochemical, human; settings: for inhibition of Azocoll-degrading proteases in wound fluids: FIG. 6; for effect on proteolytic activity of open and chronic wound fluids: FIG. 5
Method: as §1, §2, §3, §4
These inhibitors were compared to certain other inhibitors and these were UL001 [HSCH2 CH(CH2 CH(CH3)2)CO--Phe--Ala--NH2 ] obtained from Peptides International and MP506, obtained from Elastin Products. EDTA (ethylenediamine tetraacetic acid) and PMSF (phenylmethylsulfonyl fluoride) were also studied.
as §5

[9] = tested on: angiogenesis; settings: cited from earlier work

Chain of Stromelysin (P08254 100-477): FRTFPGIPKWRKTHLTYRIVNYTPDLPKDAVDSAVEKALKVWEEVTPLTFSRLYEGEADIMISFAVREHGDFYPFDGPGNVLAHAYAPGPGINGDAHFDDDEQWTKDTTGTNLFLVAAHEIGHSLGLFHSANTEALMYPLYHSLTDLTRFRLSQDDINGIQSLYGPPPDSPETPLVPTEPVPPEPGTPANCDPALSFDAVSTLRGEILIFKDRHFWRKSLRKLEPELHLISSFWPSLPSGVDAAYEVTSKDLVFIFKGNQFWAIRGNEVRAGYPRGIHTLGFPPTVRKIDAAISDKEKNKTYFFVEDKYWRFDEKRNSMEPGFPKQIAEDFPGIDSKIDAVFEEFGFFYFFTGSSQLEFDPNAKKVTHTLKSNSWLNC

Row | SMILES | Ki [1] | Ki [2] | Ki [3] | Ki [5] | Ki [6] | also measured
1 | CCCCCCCCCCCCNC(=O)[C@H](Cc1c[nH]c2ccccc12)NC(=O)C(CC(=O)NO)CC(C)C (single isomer, unassigned) [Compound 19A, N-[2-isobutyl-3-(N'-hydroxyamidocarbonyl)-propanoyl]-L-tryptophan dodecylamide] | 40 nM | 0.37 nM | 0.62 nM | 1.29 nM | – | Ki [4]: 300 nM
2 | CC(C)CC(CC(=O)NO)C(=O)N[C@@H](Cc1c[nH]c2ccccc12)C(=O)NCCCCCCNC(=O)OCc1ccccc1 (stereo partly drawn) [Compound 27A, N-[L-2-isobutyl-3-(N'-hydroxyamidocarbonyl)-propanoyl]-L-tryptophan(6-phenyl-methoxycarbonyl-1-aminohexyl)amide] | 94 nM | 2.9 nM | 21 nM | – | 0.1 nM | Ki [4]: 13 nM
3 | CC(C)CC(CC(=O)NO)C(=O)N[C@@H](Cc1c[nH]c2ccccc12)C(=O)NC1CCCCC1 (stereo partly drawn) [Compound 28A, N-[L-2-Isobutyl-3-(N'-hydroxyamidocarbonyl)-propanoyl]-L-tryptophan cyclohexylamide] | 78 nM | 4 nM | 1 nM | – | 0.1 nM | Ki [4]: 50 nM
4 | CC(C)C[C@H](CC(=O)O)C(=O)N[C@@H](Cc1c[nH]c2ccccc12)C(=O)NCCCN1CCOCC1 [Compound 48] | 19300 nM | 145 nM | 32 nM | 65 nM | – | –
5 | CC(C)C[C@H](CC(=O)NO)C(=O)N[C@@H](Cc1c[nH]c2ccccc12)C(=O)NCCN1CCOCC1 [Compound 52, N-[2-Isobutyl-3-(N'-hydroxyamidocarbonyl)-propanoyl]-L-tryptophan-3(4-morpholinyl)-n-ethylamide] | 57 nM | 0.81 nM | 0.19 nM | 0.97 nM | 0.6 nM | –
6 | CC(C)C[C@H](CC(=O)O)C(=O)N[C@@H](Cc1c[nH]c2ccccc12)C(=O)NCc1ccccc1 [Compound 57, N-[2-Isobutyl-3-hydroxycarbonylpropanoyl]-L-tryptophan-benzylamide] | 5140 nM | 57 nM | 20 nM | 37 nM | 2.2 nM | –
7 | C[C@H](NC(=O)[C@H](Cc1c[nH]c2ccccc12)NC(=O)[C@@H](CCC(=O)O)NC(=O)OC(C)(C)C)c1ccccc1 [Compound 78] | > 10000 nM | > 10000 nM | > 10000 nM | > 10000 nM | 2000 nM | –
8 | C[C@H](NC(=O)[C@H](Cc1c[nH]c2ccccc12)NC(=O)[C@@H](CCC(=O)NO)NC(=O)OC(C)(C)C)c1ccccc1 [Compound 79, Boc-D-gamma-Hydroxamidoglutamyl-L-tryptophan-(S)-methylbenzylamide] | > 10000 nM | > 10000 nM | > 10000 nM | 21100 nM | 60 nM | –
9 | C[C@H](NC(=O)[C@H](Cc1c[nH]c2ccccc12)NC(=O)[C@@H](CC(=O)O)NC(=O)OC(C)(C)C)c1ccccc1 [Compound 81] | > 10000 nM | > 10000 nM | > 10000 nM | > 10000 nM | 500 nM | –
10 | C[C@H](NC(=O)[C@H](Cc1c[nH]c2ccccc12)NC(=O)[C@@H](CC(=O)NO)NC(=O)OC(C)(C)C)c1ccccc1 [Compound 82, Boc-D-beta-hydroxamidoaspartyl-1 -tryptophan-(S)-methylbenzylamide] | > 10000 nM | 9260 nM | 3260 nM | 3580 nM | 80 nM | –
11 | CNC(=O)C(Cc1ccc(OC)cc1)NC(=O)C(CC(=O)NO)CC(C)C (stereo not drawn) [Compound S1209] | – | – | – | – | – | inhibition of protease activity of chronic wound fluid ([7]; FIG. 7, highest concentration (800 μg/ml)): 70%; inhibition of Azocoll-degrading proteases in wound fluids [8]: very effectively; also recorded: very effective inhibitors
12 | O=C(O)CN(CCN(CC(=O)O)CC(=O)O)CC(=O)O [EDTA, ethylenediamine tetraacetic acid, reference compound] | – | – | – | – | – | effective concentrations (order of magnitude) ([7]; FIG. 4): mM; inhibition of protease activity of a chronic wound fluid ([7]; FIG. 4): effectively inhibited; reduction of protease activity ([7]; FIG. 4, EDTA at mM concentrations): approximately 96%; effect on proteolytic activity of open and chronic wound fluids [8]: very effective inhibitors; inhibition of Azocoll-degrading proteases in wound fluids [8]: very effectively; reduction of proteolytic activity in open or chronic wound fluids ([8]; fluids with high levels of Azocoll-degrading protease activity): 95%
13 | O=S(=O)(F)Cc1ccccc1 [PMSF, phenylmethylsulfonyl fluoride, reference compound] | – | – | – | – | – | inhibition of protease activity of a chronic wound fluid ([7]; FIG. 4): not an effective inhibitor except at the highest concentration; reduction of proteolytic activity ([7]; FIG. 4, 500 μM): approximately 65%; effect on levels of protease activity at lower concentrations ([7]; FIG. 4, PMSF 500 μM and 50 μM): slightly increase the levels of protease activity; effect on proteolytic activity of open and chronic wound fluids [8]: did not significantly reduce the proteolytic activity; also recorded: did not reduce the levels of proteolytic activity
14 | CC(C)CC(CS)C(=O)N[C@@H](Cc1ccccc1)C(=O)N[C@@H](C)C(N)=O (stereo partly drawn) [UL001] | – | – | – | – | – | inhibition of Azocoll-degrading proteases in wound fluids [8]: very effectively
15 | CCCCC[C@H](CC(=O)NO)C(=O)N[C@H](C(=O)N1CCC[C@H]1CO)C(C)C [actinonin] | – | – | – | – | – | activity as an angiogenesis inhibitor [9]: angiogenesis inhibitor

Reference: patent US5773438A, “Synthetic matrix metalloprotease inhibitors and use thereof” (Glycomed Incorporated, priority 1994, dated 1998)
